According to patent US12227511B2, “Bicyclic compounds as kinase modulators, methods and uses thereof” (Agency for Science, Technology and Research, priority 2018, dated 2025):
Where a name gives a salt, the structure may show the parent alone.

Test system: HCCLM3 cells
Assay: GI50 in HCCLM3 cells, cell viability by MTS assay
Format: cell-based
Settings: Homo sapiens, 72 hours incubation, triplicates, read-out: HCCLM3 activity range (GI50)
Description: To investigate the effects of compounds on hepatocellular carcinoma (HCC) cell viability, HCCLM3 cells (HCC cells with high metastatic potential) were incubated with increasing concentrations of test compounds for 72 hours. Cell viability was evaluated at the end of incubation period by MTS assay. […] All samples were evaluated in triplicates.
As set forth in Table 1 below, GI50 values are defined as follows: GI50≤10 μM (+++); GI50>10 μM and ≤20 μM (++); GI50>20 μM (+).

SMILES | GI50 [µM]
COC(=O)C12CCC(NC(=O)C3(C(=O)Nc4ccc(Oc5ccnc6cc(OC)c(OC)cc56)cc4)CC3)(CC1)CC2 [Compound 15, methyl 4-(1-((4-((6,7-dimethoxyquinolin-4-yl)oxy)phenyl)carbamoyl)cyclopropane-1-carboxamido)bicyclo[2.2.2]octane-1-carboxylate] | > 20
COc1cc2nccc(Oc3ccc(NC(=O)C45CC(C(=O)NC67CCC(CC6)C7)(C4)C5)cc3)c2cc1OC [Compound 34, N1-((1s,4s)-bicyclo[2.2.1]heptan-1-yl)-N3-(4-((6,7-dimethoxyquinolin-4 yl)oxy)phenyl)bicyclo[1.1.1]pentane-1,3-dicarboxamide] | > 20
COc1cc2nccc(Oc3ccc(NC(=O)C4(C(=O)NC56CNCC5C6)CC4)cc3)c2cc1OC (centres unmarked) [Compound 17, N-(3-azabicyclo[3.1.0]hexan-1-yl)-N-(4-((6,7-dimethoxyquinolin-4-yl)oxy)phenyl)cyclopropane-1,1-dicarboxamide] | > 20
COc1cc2nccc(Oc3ccc(NC(=O)C4(C(=O)NC56CC7CC(CC(C7)C5)C6)CC4)cc3)c2cc1OC [Compound 28, N-((3R,5R)-adamantan-1-yl)-N-(4-((6,7-dimethoxyquinolin-4-yl)oxy)phenyl)cyclopropane-1,1-dicarboxamide] | 10 to 20
COc1cc2nccc(Oc3ccc(NC(=O)C4(C(=O)NC56CC(NC(=O)C7(C(=O)Nc8ccc(Oc9ccnc%10cc(OC)c(OC)cc9%10)cc8)CC7)(C5)C6)CC4)cc3)c2cc1OC [Compound 14, N,N′-(bicyclo[1.1.1]pentane-1,3-diyl)bis(N-(4-((6,7-dimethoxyquinolin-4-yl)oxy)phenyl)cyclopropane-1,1-dicarboxamide)] | > 20
CCOC(=O)[C@@H]1C2CCC(CC2)[C@H]1NC(=O)C1(C(=O)Nc2ccc(Oc3ccnc4cc(OC)c(OC)cc34)cc2)CC1 [Compound 16, ethyl (2R,3R)-3-(1-((4-((6,7-dimethoxyquinolin-4-yl)oxy)phenyl)carbamoyl)cyclopropane-1-carboxamido)bicyclo[2.2.2]octane-2-carboxylate] | > 20
COc1cc2nccc(Oc3ccc(NC(=O)C45CC(C(=O)N6CC7CC7C6)(C4)C5)cc3)c2cc1OC (centres unmarked) [Compound 35, 3-(3-azabicyclo[3.1.0]hexane-3-carbonyl)-N-(4-((6,7-dimethoxyquinolin-4-yl)oxy)phenyl)bicyclo[1.1.1]pentane-1-carboxamide] | > 20
COc1cc2nccc(Oc3ccc(NC(=O)C4(C(=O)NC56CC(CO)(C5)C6)CC4)cc3)c2cc1OC [Compound 32, N-(4-((6,7-dimethoxyquinolin-4-yl)oxy)phenyl)-N-(3-(hydroxymethyl)bicyclo[1.1.1]pentan-1-yl)cyclopropane-1,1-dicarboxamide] | ≤ 10
COc1cc2nccc(Oc3ccc(NC(=O)C4(C(=O)NC56CC(O)(C5)C6)CC4)cc3)c2cc1OC [Compound 6, N-(4-((6,7-dimethoxyquinolin-4-yl)oxy)phenyl)-N-(3-hydroxybicyclo[1.1.1]pentan-1-yl)cyclopropane-1,1-dicarboxamide] | > 20
COc1cc2nccc(Oc3ccc(NC(=O)C4(C(=O)NC56CC(C(=O)O)(C5)C6)CC4)cc3)c2cc1OC [Compound 29, 3-(1-((4-((6,7-dimethoxyquinolin-4-yl)oxy)phenyl)carbamoyl)cyclopropane-1-carboxamido)bicyclo[1.1.1]pentane-1-carboxylic acid hydrochloride] | > 20
COc1cc2nccc(Oc3ccc(NC(=O)C4(C(=O)N5C6CCCC5CCC6)CC4)cc3)c2cc1OC [Compound 26, 1-((1s,5s)-9-azabicyclo[3.3.1]nonane-9-carbonyl)-N-(4-((6,7-dimethoxyquinolin-4-yl)oxy)phenyl)cyclopropane-1-carboxamide] | > 20
COc1cc2nccc(Oc3ccc(NC(=O)C4(C(=O)NC56CC(C5)C6)CC4)cc3)c2cc1OC [Compound 1, N-(bicyclo[1.1.1]pentan-1-yl)-N-(4-(6,7-dimethoxyquinolin-4-yloxy)phenyl)cyclopropane-1,1-dicarboxamide] | ≤ 10
COc1cc2nccc(Oc3ccc(NC(=O)C4(C(=O)N5CC6CC6C5)CC4)cc3)c2cc1OC (centres unmarked) [Compound 27, 1-(3-azabicyclo[3.1.0]hexane-3-carbonyl)-N-(4-((6,7-dimethoxyquinolin-4-yl)oxy)phenyl)cyclopropane-1-carboxamide] | > 20
COc1cc2nccc(Oc3ccc(NC(=O)C4(C(=O)NC56CC(N)(C5)C6)CC4)cc3)c2cc1OC [Compound 12, N-(3-aminobicyclo[1.1.1]pentan-1-yl)-N-(4-((6,7-dimethoxyquinolin-4-yl)oxy)phenyl)cyclopropane-1,1-dicarboxamide] | > 20
COc1cc2nccc(Oc3ccc(NC(=O)C4(C(=O)N5[C@@H]6CC[C@H]5C[C@H](C#N)C6)CC4)cc3)c2cc1OC [Compound 21, EXO-1-(3-cyano-8-azabicyclo[3.2.1]octane-8-carbonyl)-N-(4-((6,7-dimethoxyquinolin-4-yl)oxy)phenyl)cyclopropane-1-carboxamide] | > 20
COc1cc2nccc(Oc3ccc(NC(=O)C4(C(=O)NC56CCC(CC5)C6)CC4)cc3)c2cc1OC [Compound 25, N-((1s,4s)-bicyclo[2.2.1]heptan-1-yl)-N-(4-((6,7-dimethoxyquinolin-4-yl)oxy)phenyl)cyclopropane-1,1-dicarboxamide] | ≤ 10
COc1cc2nccc(Oc3ccc(NC(=O)C4(C(=O)NC56CC(C(F)(F)F)(C5)C6)CC4)cc3)c2cc1OC [Compound 11, N-(4-((6,7-dimethoxyquinolin-4-yl)oxy)phenyl)-N-(3-(trifluoromethyl)bicyclo[1.1.1]pentan-1-yl)cyclopropane-1,1-dicarboxamide] | ≤ 10
COc1cc2nccc(Oc3ccc(NC(=O)C4(C(=O)N5[C@@H]6CC[C@H]5C[C@@H](OC)C6)CC4)cc3)c2cc1OC [Compound 19, N-(4-((6,7-dimethoxyquinolin-4-yl)oxy)phenyl)-1-((1R,3r,5S)-3-methoxy-8-azabicyclo[3.2.1]octane-8-carbonyl)cyclopropane-1-carboxamide] | > 20
COc1cc2nccc(Oc3ccc(NC(=O)C4(C(=O)N5C[C@@H]6COC[C@@H](C6)C5)CC4)cc3)c2cc1OC [Compound 20, 1-((1R,5S)-3-oxa-7-azabicyclo[3.3.1]nonane-7-carbonyl)-N-(4-((6,7-dimethoxyquinolin-4-yl)oxy)phenyl)cyclopropane-1-carboxamide] | > 20
COCC12CC(NC(=O)C3(C(=O)Nc4ccc(Oc5ccnc6cc(OC)c(OC)cc56)cc4)CC3)(C1)C2 [Compound 30, N-(4-((6,7-dimethoxyquinolin-4-yl)oxy)phenyl)-N-(3-(methoxymethyl)bicyclo[1.1.1]pentan-1-yl)cyclopropane-1,1-dicarboxamide] | 10 to 20
COc1cc2nccc(Oc3ccc(NC(=O)C45CC(C(=O)NC67CC(F)(C6)C7)(C4)C5)cc3)c2cc1OC [Compound 3, N^1-(4-((6,7-dimethoxyquinolin-4-yl)oxy)phenyl)-N3-(3-fluorobicyclo[1.1.1]pentan-1-yl)bicyclo[1.1.1]pentane-1,3-dicarboxamide] | > 20
COc1cc2nccc(Oc3ccc(NC(=O)C4(C(=O)NC56CC(c7cnccn7)(C5)C6)CC4)cc3)c2cc1OC [Compound 9, N-(4-((6,7-dimethoxyquinolin-4-yl)oxy)phenyl)-N-(3-(pyrazin-2-yl)bicyclo[1.1.1]pentan-1-yl)cyclopropane-1,1-dicarboxamide] | > 20
COC(=O)C12CC(NC(=O)C3(C(=O)Nc4ccc(Oc5ccnc6cc(OC)c(OC)cc56)cc4)CC3)(C1)C2 [Compound 31, methyl 3-(1-((4-((6,7-dimethoxyquinolin-4-yl)oxy)phenyl)carbamoyl)cyclopropane-1-carboxamido)bicyclo[1.1.1]pentane-1-carboxylate] | ≤ 10
COc1cc2nccc(Oc3ccc(NC(=O)C4(C(=O)NC56CC(NC(C)=O)(C5)C6)CC4)cc3)c2cc1OC [Compound 13, N-(3-acetamidobicyclo[1.1.1]pentan-1-yl)-N-(4-((6,7-dimethoxyquinolin-4-yl)oxy)phenyl)cyclopropane-1,1-dicarboxamide] | > 20
COc1cc2nccc(Oc3ccc(NC(=O)C4(C(=O)NC56CC(C(N)=O)(C5)C6)CC4)cc3)c2cc1OC [Compound 7, N-(3-carbamoylbicyclo[1.1.1]pentan-1-yl)-N-(4-((6,7-dimethoxyquinolin-4-yl)oxy)phenyl)cyclopropane-1,1-dicarboxamide] | > 20
COc1cc2nccc(Oc3ccc(NC(=O)C45CC(C(=O)NC6CC6)(C4)C5)cc3)c2cc1OC [Compound 36, N1-cyclopropyl-N3-(4-((6,7-dimethoxyquinolin-4-yl)oxy)phenyl)bicyclo[1.1.1]pentane-1,3-dicarboxamide] | > 20
COc1cc2nccc(Oc3ccc(NC(=O)C4(C(=O)NC56CC(C#N)(C5)C6)CC4)cc3)c2cc1OC [Compound 33, N-(3-cyanobicyclo[1.1.1]pentan-1-yl)-N-(4-((6,7-dimethoxyquinolin-4-yl)oxy)phenyl)cyclopropane-1,1-dicarboxamide] | 10 to 20
COc1cc2nccc(Oc3ccc(NC(=O)C4(C(=O)NC56CC(c7ccccc7)(C5)C6)CC4)cc3)c2cc1OC [Compound 2, N-(4-((6,7-dimethoxyquinolin-4-yl)oxy)phenyl)-N-(3-phenylbicyclo[1.1.1]pentan-1-yl)cyclopropane-1,1-dicarboxamide] | > 20
COc1cc2nccc(Oc3ccc(NC(=O)C4(C(=O)NC56CCC(CC5)CC6)CC4)cc3)c2cc1OC [Compound 24, N-(bicyclo[2.2.2]octan-1-yl)-N-(4-((6,7-dimethoxyquinolin-4-yl)oxy)phenyl)cyclopropane-1,1-dicarboxamide] | 10 to 20
